Source: PubChem BioAssay (NCI)
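Each compound was tested at five concentrations against cells in 96-well plates for 48 hours. Here, GI50 denotes the concentration required for 50% inhibition of growth. Definition used: TGI = concentration required for complete inhibition of growth.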

Key:
Assay in all cases: NCI-60 cell line screen, 48 h
TK-10 renal = system: TK-10 renal
SK-OV-3 ovarian = system: SK-OV-3 ovarian
K-562 leukemia = system: K-562 leukemia
A549 NSCLC = system: A549 NSCLC
SK-MEL-28 melanoma = system: SK-MEL-28 melanoma
RPMI-8226 leukemia = system: RPMI-8226 leukemia
HL-60(TB) leukemia = system: HL-60(TB) leukemia
HCC-2998 colon = system: HCC-2998 colon
LOX IMVI melanoma = system: LOX IMVI melanoma
NCI/ADR-RES ovarian = system: NCI/ADR-RES ovarian
SR leukemia = system: SR leukemia
OVCAR-3 ovarian = system: OVCAR-3 ovarian
SNB-75 CNS = system: SNB-75 CNS
SN12C renal = system: SN12C renal
OVCAR-4 ovarian = system: OVCAR-4 ovarian
MDA-MB-435 = system: MDA-MB-435
HCT-15 colon = system: HCT-15 colon
SF-268 CNS = system: SF-268 CNS
HCT-116 colon = system: HCT-116 colon
NCI-H23 lung = system: NCI-H23 lung
SW-620 colon = system: SW-620 colon
A498 renal = system: A498 renal
CAKI-1 renal = system: CAKI-1 renal
MDA-MB-231 breast = system: MDA-MB-231 breast
CCRF-CEM leukemia = system: CCRF-CEM leukemia
BT-549 breast = system: BT-549 breast
ACHN renal = system: ACHN renal
DU-145 prostate = system: DU-145 prostate
NCI-H226 lung = system: NCI-H226 lung
MCF7 breast = system: MCF7 breast
786-0 renal = system: 786-0 renal
SK-MEL-5 melanoma = system: SK-MEL-5 melanoma
NCI-H522 lung = system: NCI-H522 lung
OVCAR-5 ovarian = system: OVCAR-5 ovarian
SNB-19 CNS = system: SNB-19 CNS
U251 CNS = system: U251 CNS
COLO 205 colon = system: COLO 205 colon
KM12 colon = system: KM12 colon
UACC-257 melanoma = system: UACC-257 melanoma
OVCAR-8 ovarian = system: OVCAR-8 ovarian
SF-295 CNS = system: SF-295 CNS
IGROV1 ovarian = system: IGROV1 ovarian
HOP-62 NSCLC = system: HOP-62 NSCLC
HOP-92 NSCLC = system: HOP-92 NSCLC
HS 578T breast = system: HS 578T breast
HT29 colon = system: HT29 colon
SF-539 CNS = system: SF-539 CNS
NCI-H460 lung = system: NCI-H460 lung
T-47D breast = system: T-47D breast
UO-31 renal = system: UO-31 renal
RXF 393 renal = system: RXF 393 renal

Cc1cc(Nc2ncc(F)c(N[C@H]3[C@@H](C(N)=O)[C@@H]4C=C[C@H]3C4)n2)ccc1N1CCN(C)CC1
GI50 (TK-10 renal): 22.5 nM
TGI (TK-10 renal): 1960 nM
GI50 (SK-OV-3 ovarian): 36.8 nM
TGI (SK-OV-3 ovarian): 2220 nM
GI50 (K-562 leukemia): 416 nM
TGI (K-562 leukemia): > 100000 nM
GI50 (A549 NSCLC): < 10 nM
TGI (A549 NSCLC): 2320 nM
GI50 (SK-MEL-28 melanoma): 4280 nM
TGI (SK-MEL-28 melanoma): 17700 nM
GI50 (RPMI-8226 leukemia): 1860 nM
TGI (RPMI-8226 leukemia): 6850 nM
GI50 (HL-60(TB) leukemia): 2960 nM
TGI (HL-60(TB) leukemia): 11400 nM
GI50 (HCC-2998 colon): 2150 nM
TGI (HCC-2998 colon): 6180 nM
GI50 (LOX IMVI melanoma): 24.9 nM
TGI (LOX IMVI melanoma): 1290 nM
GI50 (NCI/ADR-RES ovarian): 348 nM
TGI (NCI/ADR-RES ovarian): 8570 nM
GI50 (SR leukemia): < 10 nM
TGI (SR leukemia): 2320 nM
GI50 (OVCAR-3 ovarian): 1480 nM
TGI (OVCAR-3 ovarian): 3150 nM
GI50 (SNB-75 CNS): < 15.3 nM
TGI (SNB-75 CNS): 167 nM
GI50 (SN12C renal): 32.8 nM
TGI (SN12C renal): 11500 nM
GI50 (OVCAR-4 ovarian): 1600 nM
TGI (OVCAR-4 ovarian): 3220 nM
GI50 (MDA-MB-435): 1490 nM
TGI (MDA-MB-435): 15600 nM
GI50 (HCT-15 colon): 37.4 nM
TGI (HCT-15 colon): 16000 nM
GI50 (SF-268 CNS): 107 nM
TGI (SF-268 CNS): 6680 nM
GI50 (HCT-116 colon): 19.9 nM
TGI (HCT-116 colon): 7810 nM
GI50 (NCI-H23 lung): 1510 nM
TGI (NCI-H23 lung): 7150 nM
GI50 (SW-620 colon): 21.8 nM
TGI (SW-620 colon): 8500 nM
GI50 (A498 renal): < 11.6 nM
TGI (A498 renal): 69.3 nM
GI50 (CAKI-1 renal): 21.7 nM
TGI (CAKI-1 renal): 14000 nM
GI50 (MDA-MB-231 breast): 124 nM
TGI (MDA-MB-231 breast): 1730 nM
GI50 (CCRF-CEM leukemia): < 10 nM
TGI (CCRF-CEM leukemia): 6030 nM
GI50 (BT-549 breast): 76.5 nM
TGI (BT-549 breast): 1150 nM
GI50 (ACHN renal): 17.8 nM
TGI (ACHN renal): 12900 nM
GI50 (DU-145 prostate): 455 nM
TGI (DU-145 prostate): 17700 nM
GI50 (NCI-H226 lung): < 15.6 nM
TGI (NCI-H226 lung): 2850 nM
GI50 (MCF7 breast): 59.9 nM
TGI (MCF7 breast): 3230 nM
GI50 (786-0 renal): 68.8 nM
TGI (786-0 renal): 5250 nM
GI50 (SK-MEL-5 melanoma): 1970 nM
TGI (SK-MEL-5 melanoma): 6790 nM
GI50 (NCI-H522 lung): 43.6 nM
TGI (NCI-H522 lung): 3350 nM
GI50 (OVCAR-5 ovarian): 40.5 nM
TGI (OVCAR-5 ovarian): > 20400 nM
GI50 (SNB-19 CNS): 725 nM
TGI (SNB-19 CNS): 8750 nM
GI50 (U251 CNS): 69.4 nM
TGI (U251 CNS): 4800 nM
GI50 (COLO 205 colon): < 10 nM
TGI (COLO 205 colon): < 32.6 nM
GI50 (KM12 colon): 208 nM
TGI (KM12 colon): 11500 nM
GI50 (UACC-257 melanoma): 4070 nM
TGI (UACC-257 melanoma): 18100 nM
GI50 (OVCAR-8 ovarian): 133 nM
TGI (OVCAR-8 ovarian): 6340 nM
GI50 (SF-295 CNS): < 17.7 nM
TGI (SF-295 CNS): 12700 nM
GI50 (IGROV1 ovarian): 30.2 nM
TGI (IGROV1 ovarian): 18800 nM
GI50 (HOP-62 NSCLC): 134 nM
TGI (HOP-62 NSCLC): 2560 nM
GI50 (HOP-92 NSCLC): 24.9 nM
TGI (HOP-92 NSCLC): 327 nM
GI50 (HS 578T breast): 27.4 nM
TGI (HS 578T breast): 330 nM
GI50 (HT29 colon): 47.1 nM
GI50 (SF-539 CNS): 36.2 nM
TGI (SF-539 CNS): 586 nM
GI50 (NCI-H460 lung): 10.1 nM
TGI (NCI-H460 lung): 4210 nM
GI50 (T-47D breast): 6740 nM
TGI (T-47D breast): 26700 nM
GI50 (UO-31 renal): 39.3 nM
TGI (UO-31 renal): 4640 nM
GI50 (RXF 393 renal): 16.5 nM
TGI (RXF 393 renal): 187 nM
